Literature values as cited in patent US11344598B2, “Herbal nanoformulations for treating psoriasis and other skin conditions” (Sirbal Ltd., priority 2016, dated 2022).

Details: in words

solubility in water: insoluble in water
Structure (SMILES): CCC(=O)O[C@]1(C(=O)CCl)[C@@H](C)C[C@H]2[C@@H]3CCC4=CC(=O)C=C[C@]4(C)[C@@]3(F)[C@@H](O)C[C@@]21C [Clobetasol propionate, clobetasol propionate]
